Reference: patent US10399991B2, “Kv1.3 inhibitors and their medical applications” (4SC AG, priority 2015, dated 2019)

Target: Kv1.3 (Homo sapiens (Human), UniProt P22001)
Experiment: Patch-clamp assay for inhibitory activity on Kv1.3 (whole cell patch-clamp recording)
Type: cell-based
Details: n≥2 per concentration
Description: Patch-Clamp Assay for Inhibitory Activity on Kv1.3
For a description of a Kv1.3 patch-clamp assay, see Grissmer et al., Mol. Pharmacol. 1994, 45, 1227; whole cell patch-clamp recording was performed with n≥2 individual experiments at each compound concentration using different cells. Three or more different concentrations were determined per dose response curve.

Sequence of Kv1.3 (P22001 whole entry): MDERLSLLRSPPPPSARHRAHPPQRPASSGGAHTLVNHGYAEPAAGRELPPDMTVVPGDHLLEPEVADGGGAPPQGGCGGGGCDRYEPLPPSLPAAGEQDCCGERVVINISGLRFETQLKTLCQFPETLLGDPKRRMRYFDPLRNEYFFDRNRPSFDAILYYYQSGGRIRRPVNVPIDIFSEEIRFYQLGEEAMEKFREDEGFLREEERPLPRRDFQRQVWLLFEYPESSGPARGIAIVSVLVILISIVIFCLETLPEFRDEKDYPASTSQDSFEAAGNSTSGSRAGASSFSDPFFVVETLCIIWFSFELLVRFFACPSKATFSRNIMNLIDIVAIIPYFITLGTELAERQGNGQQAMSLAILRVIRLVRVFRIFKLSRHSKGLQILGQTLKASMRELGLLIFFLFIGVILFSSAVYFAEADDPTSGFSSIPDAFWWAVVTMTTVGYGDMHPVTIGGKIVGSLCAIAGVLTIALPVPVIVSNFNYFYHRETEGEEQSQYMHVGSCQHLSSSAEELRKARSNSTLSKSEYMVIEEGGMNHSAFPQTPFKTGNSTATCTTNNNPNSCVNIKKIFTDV

| IC50 | Structure (SMILES) |
| --- | --- |
| 1500 to 3000 nM | COc1cccc(-c2cc(=O)oc3c(C)c4occ(C)c4cc23)c1 [Example 2, 5-(3-methoxyphenyl)-3,9-dimethyl-7H-furo[3,2-g]chromen-7-one] |
| 1500 to 3000 nM | Cc1coc2c(C)c3oc(=O)cc(-c4ccccc4Cl)c3cc12 [Example 3, 5-(2-chlorophenyl)-3,9-dimethyl-7H-furo[3,2-g]chromen-7-one] |
| 1500 to 3000 nM | Cc1coc2c(C)c3oc(=O)cc(-c4cccc(C(F)(F)F)c4)c3cc12 [Example 4, 3,9-dimethyl-5-(3-(trifluoromethyl)phenyl)-7H-furo[3,2-g]chromen-7-one] |
| 501 to 1500 nM | COc1cccc(-c2c(C)c(=O)oc3c(C)c4occ(C)c4cc23)c1 [Example 6, 5-(3-methoxyphenyl)-3,6,9-trimethyl-7H-furo[3,2-g]chromen-7-one] |
| ≤ 500 nM | Cc1coc2c(C)c3oc(=O)cc(-c4ccccc4F)c3cc12 [Example 8, 5-(2-fluorophenyl)-3,9-dimethyl-7H-furo[3,2-g]chromen-7-one] |
| 1500 to 3000 nM | Cc1c(N2CCOCC2)oc2c(C)c3oc(=O)cc(-c4ccccc4)c3cc12 [Example 12, 3,9-dimethyl-2-morpholino-5-phenyl-7H-furo[3,2-g]chromen-7-one] |
| 1500 to 3000 nM | Cc1c(C#N)oc2c(C)c3oc(=O)cc(-c4ccccc4)c3cc12 [Example 13, 3,9-dimethyl-7-oxo-5-phenyl-7H-furo[3,2-g]chromene-2-carbonitrile] |
| 1500 to 3000 nM | Cc1c(CN2CCOCC2)oc2c(C)c3oc(=O)cc(-c4ccccc4)c3cc12 [Example 14, 3,9-dimethyl-2-(morpholinomethyl)-5-phenyl-7H-furo[3,2-g]chromen-7-one] |
| 1500 to 3000 nM | Cc1c(CN(C)C)oc2c(C)c3oc(=O)cc(-c4ccccc4)c3cc12 [Example 15, 2-((dimethylamino)methyl)-3,9-dimethyl-5-phenyl-7H-furo[3,2-g]chromen-7-one] |
| 501 to 1500 nM | Cc1ccccc1-c1cc(=O)oc2cc3occ(C)c3cc12 [Example 17, 3-methyl-5-(o-tolyl)-7H-furo[3,2-g]chromen-7-one] |
| 501 to 1500 nM | Cc1cccc(-c2cc(=O)oc3cc4occ(C)c4cc23)c1 [Example 18, 3-methyl-5-(m-tolyl)-7H-furo[3,2-g]chromen-7-one] |
| 501 to 1500 nM | COc1ccccc1-c1cc(=O)oc2cc3occ(C)c3cc12 [Example 19, 5-(2-methoxyphenyl)-3-methyl-7H-furo[3,2-g]chromen-7-one] |
| 501 to 1500 nM | COc1cccc(-c2cc(=O)oc3cc4occ(C)c4cc23)c1 [Example 20, 5-(3-methoxyphenyl)-3-methyl-7H-furo[3,2-g]chromen-7-one] |
| 501 to 1500 nM | Cc1coc2cc3oc(=O)cc(-c4ccccc4Cl)c3cc12 [Example 21, 5-(2-chlorophenyl)-3-methyl-7H-furo[3,2-g]chromen-7-one] |
| 501 to 1500 nM | Cc1coc2cc3oc(=O)cc(-c4cccc(Cl)c4)c3cc12 [Example 22, 5-(3-chlorophenyl)-3-methyl-7H-furo[3,2-g]chromen-7-one] |
| 1500 to 3000 nM | COc1c2occ(C)c2cc2c(-c3ccccc3)cc(=O)oc12 [Example 23, 9-methoxy-3-methyl-5-phenyl-7H-furo[3,2-g]chromen-7-one] |
| 501 to 1500 nM | Cc1coc2nc3oc(=O)cc(-c4ccccc4)c3cc12 [Example 24, 3-methyl-5-phenyl-7H-furo[2,3-b]pyrano[3,2-e]pyridin-7-one] |
| 501 to 1500 nM | Cc1ccccc1-c1c(Br)c(=O)[nH]c2c(C)c3occ(C)c3cc12 [Example 28, 6-bromo-3,9-dimethyl-5-(o-tolyl)furo[3,2-g]quinolin-7(8H)-one] |
| 1500 to 3000 nM | Cc1ccccc1-c1cc(=O)[nH]c2c(C)c3occ(C)c3cc12 [Example 29, 3,9-dimethyl-5-(o-tolyl)furo[3,2-g]quinolin-7(8H)-one] |

| IC50 | Structure (SMILES) |
| --- | --- |
| 1500 to 3000 nM | Cc1coc2c(C)c3c(cc12)c(-c1ccccc1)cc(=O)n3C [Example 32, 3,8,9-trimethyl-5-phenylfuro[3,2-g]quinolin-7(8H)-one] |
| ≤ 500 nM | Cc1coc2c(C)c3c(cc12)c(-c1ccccc1)c(Br)c(=O)n3C [Example 33, 6-bromo-3,8,9-trimethyl-5-phenylfuro[3,2-g]quinolin-7(8H)-one] |
| 501 to 1500 nM | Cc1c(-c2ccccc2)c2cc3c(C)noc3c(C)c2oc1=O [Example 35, 3,6,9-trimethyl-5-phenyl-7H-chromeno[6,7-d]isoxazol-7-one] |
| ≤ 500 nM | Cc1c(-c2ccccc2)c2cc3c(C)noc3c(C)c2[nH]c1=O [Example 36, 3,6,9-trimethyl-5-phenylisoxazolo[4,5-g]quinolin-7(8H)-one] |
| 501 to 1500 nM | Cc1nc2cc3c(-c4ccccc4)cc(=O)oc3c(C)c2o1 [Example 38, 2,4-dimethyl-8-phenyl-6H-chromeno[6,7-d]oxazol-6-one] |
| 1500 to 3000 nM | CNCc1nc2cc3c(-c4ccccc4)cc(=O)oc3c(C)c2o1 [Example 39, 4-methyl-2-((methylamino)methyl)-8-phenyl-6H-chromeno[6,7-d]oxazol-6-one] |
| 501 to 1500 nM | Cc1c(-c2ccccc2)c2cc3c(C4CC4)coc3c(C)c2oc1=O [Example 42, 3-cyclopropyl-6,9-dimethyl-5-phenyl-7H-furo[3,2-g]chromen-7-one] |
| 1500 to 3000 nM | Cc1coc2c(C)c3oc(=O)cc(-c4cccnc4)c3cc12 [Example 44, 3,9-dimethyl-5-(pyridin-3-yl)-7H-furo[3,2-g]chromen-7-one] |
| 1500 to 3000 nM | Cc1c(-c2ccccc2)c2cc3c(C)c(CN(C)C)oc3c(C)c2oc1=O [Example 46, 2-((dimethylamino)methyl)-3,6,9-trimethyl-5-phenyl-7H-furo[3,2-g]chromen-7-one] |
| 1500 to 3000 nM | Cc1c2ocnc2cc2c(-c3ccccc3)cc(=O)oc12 [Example 47, 4-methyl-8-phenyl-6H-chromeno[6,7-d]oxazol-6-one] |
| 501 to 1500 nM | Cc1nc2cc3c(-c4ccccc4)c(C)c(=O)oc3c(C)c2o1 [Example 48, 2,4,7-trimethyl-8-phenyl-6H-chromeno [6,7-d]oxazol-6-one] |
| 1500 to 3000 nM | Cc1noc2c(C)c3oc(=O)cc(-c4ccccc4)c3cc12 [Example 50, 3,9-dimethyl-5-phenyl-7H-chromeno[6,7-d]isoxazol-7-one] |
| 501 to 1500 nM | Cc1noc2c(C)c3[nH]c(=O)cc(-c4ccccc4)c3cc12 [Example 51, 3,9-dimethyl-5-phenylisoxazolo[4,5-g]quinolin-7(8H)-one] |
| 501 to 1500 nM | Cc1c(-c2ccccc2)c2cc3c(C)noc3c(C)c2n(C)c1=O [Example 52, 3,6,8,9-tetramethyl-5-phenylisoxazolo[4,5-g]quinolin-7(8H)-one] |
| 1500 to 3000 nM | Cc1c(-c2cccnc2)c2cc3c(C)noc3c(C)c2n(C)c1=O [Example 56, 3,6,8,9-tetramethyl-5-(pyridin-3-yl)isoxazolo[4,5-g]quinolin-7(8H)-one] |
| 1500 to 3000 nM | Cc1coc2c(C)c3oc(=O)cc(-c4ccccn4)c3cc12 [Example 57, 3,9-dimethyl-5-(pyridin-2-yl)-7H-furo[3,2-g]chromen-7-one] |
| 501 to 1500 nM | Cc1ccccc1-c1cc(=O)oc2c(C)c3occ(C)c3cc12 [Example 58, 3,9-dimethyl-5-(o-tolyl)-7H-furo[3,2-g]chromen-7-one] |
| 501 to 1500 nM | Cc1ccccc1-c1c(C)c(=O)n(C)c2c(C)c3occ(C)c3cc12 [Example 59, 3,6,8,9-tetramethyl-5-(o-tolyl)furo[3,2-g]quinolin-7(8H)-one] |
